The NIST ThermoML archive (doi:10.1021/acs.jced.9b00564)
± gives the expanded uncertainty stated by the source.

Columns and labels:
[1] = Crystal; DSC
[2] = Molar enthalpy of transition or fusion; conditions: Crystal; DSC

## O=[N+]([O-])c1ncccc1O [2-nitropyridin-3-ol]
[1]
  Triple point temperature: 342.77 ± 1.2 K
[2]
  Molar enthalpy of transition or fusion: 5.27 ± 0.182 kcal/mol
